The text below walks through data of publication PMC7113753 (Antiviral Research, 2018).

Entries after “also recorded” stand apart in the source; their conditions may differ. Read-outs that look alike come from different tables or passages of the source.

Test [1] concerns the target T1, PEDV PL2^pro (Porcine epidemic diarrhea virus, UniProt V5W8W2). The test can be described thus: biochemical. The format is biochemical.
For another test, the system named is human USP2. The following applies: cited from earlier work.
Test [2] addresses T1, PEDV PL2^pro. The format is biochemical.

On to `COc1c(C)c2c(c(O)c1C/C=C(\C)CCC(=O)O)C(=O)OC2` [Mycophenolic acid], for which the IC50 at PEDV PL2^pro [1] was over 200 µM.
`Nc1nc2nc[nH]c2c(=S)[nH]1` [6TG, 6-thioguanine]: the “IC50 of 6TG fold lower than that of 6MP” value at PEDV PL2^pro [1] was found to be 4.2 fold. The pattern of inhibition result in the test on human USP2 is recorded as “noncompetitive inhibitory effect”; on PEDV PL2^pro [2] it was “noncompetitive inhibitor; also recorded: noncompetitive pattern of inhibition”.
At PEDV PL2^pro [1], `Sc1ncnc2nc[nH]c12` [6MP, 6-mercaptopurine] displayed an IC50 of 58.1 ± 5.7 µM.
Still for that read-out and setting: as for `CCN(CC)C(=S)SSC(=S)N(CC)CC` [Disulfiram], the figure is over 100 µM.
With `O=C(O)CN(CCN(CC(=O)O)CC(=O)O)CC(=O)O` [EDTA], the “inhibition of DUB activity by EDTA (in words)” value at PEDV PL2^pro [1] is given as “dose-dependent pattern”.
On to zinc ions, for which the “inhibition of DUB activity by external zinc ions (in words)” value against PEDV PL2^pro [1] was “can be inhibited”.
Consider `O=c1[nH]cnc2nc[nH]c12` [Hypoxanthine], for which, at PEDV PL2^pro [1], the IC50 is over 200 µM and the “inhibitory activity (in words)” value was “devoid of inhibitory activity”.
With `Cc1ccc(N)cc1C(=O)N[C@H](C)c1cccc2ccccc12` [GRL0617], the IC50 at PEDV PL2^pro [1] (read-out: IC50 (DUB activity), pH 6.5) is over 100 µM.

Broadly, the IC50 is the concentration that gives 50% inhibition.
